Experimental data reported in patent US20260285850A1, “SUBSTITUTED OXAZOLIDINONES AND IMIDAZOLINONES AS HERBICIDES” (FMC CORPORATION, priority 2023, published 2026).

Assays:
Format in all cases: in vivo
corn (Zea mays) [1] = test: Test A postemergence application, visual injury rating 0-100; conditions: 10 days
Procedure, shortened: (§1)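 Visual injury, scored 0-100 (100 = complete control) against untreated plants, 10 days after greenhouse treatment. Test chemicals in surfactant-containing non-phytotoxic solvent were applied in loam soil and sand, as a preemergence soil spray on seeds or postemergence to plants at the one- to two-leaf stage.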

[2] = system: palmer (palmer amaranth, palmer pigweed, Amaranthus palmeri); test: as above; conditions: 10 days
Procedure, shortened: as §1

[3] = system: galium (catchweed bedstraw, Galium aparine); test: as above; conditions: 10 days
Procedure, shortened: as §1

[4] = system: ryegrass, Italian (italian ryegrass, Lolium multiflorum); test: as above; conditions: 10 days
Procedure, shortened: as §1

kochia (Bassia scoparia) [5] = test: as above; conditions: 10 days
Procedure, shortened: as §1

soybean (Glycine max) [6] = test: as above; conditions: 10 days
Procedure, shortened: as §1

[7] = system: wheat (Triticum aestivum); test: as above; conditions: 10 days
Procedure, shortened: as §1

[8] = system: oat, wild (wild oat, Avena fatua); test: as above; conditions: 10 days
Procedure, shortened: as §1

[9] = system: blackgrass (Alopecurus myosuroides); test: as above; conditions: 10 days
Procedure, shortened: as §1

[10] = system: ragweed (common ragweed, Ambrosia artemisiifolia); test: as above; conditions: 10 days
Procedure, shortened: as §1

[11] = system: horseweed (Erigeron canadensis); test: as above; conditions: 10 days
Procedure, shortened: as §1

[12] = system: barnyardgrass (Echinochloa crus-galli); test: as above; conditions: 10 days
Procedure, shortened: as §1

[13] = system: barnyardgrass (Echinochloa crusgalli); test: Test B flooded paddy test, visual plant response rating 0-100; conditions: 250 g ai/ha, Flood, applied to paddy water, evaluated after 13 days
Procedure, shortened: (§2)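 Each species was raised to two leaves before flooding to a 3 cm depth and dosing the water with compound. Injury was assessed by eye after 13 days under greenhouse conditions.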

[14] = system: sedge, umbrella (small-flower umbrella sedge, Cyperus difformis); test: as above; conditions: 250 g ai/ha, Flood, applied to paddy water, evaluated after 13 days
Procedure, shortened: as §2

[15] = system: ducksalad (Heteranthera limosa); test: as above; conditions: 250 g ai/ha, Flood, applied to paddy water, evaluated after 13 days
Procedure, shortened: as §2

rice (Oryza sativa) = test: as above; conditions: 250 g ai/ha, Flood, applied to paddy water, evaluated after 13 days
Procedure, shortened: as §2

corn (Zea mays) [16] = test: Test A preemergence soil spray, visual injury rating 0-100; conditions: 10 days, 0 = no effect, 100 = complete control
Procedure, shortened: as §1

[17] = system: palmer (palmer amaranth, palmer pigweed, Amaranthus palmeri); test: as above; conditions: 10 days, 0 = no effect, 100 = complete control
Procedure, shortened: as §1

[18] = system: ryegrass, Italian (italian ryegrass, Lolium multiflorum); test: as above; conditions: 10 days, 0 = no effect, 100 = complete control
Procedure, shortened: as §1

kochia (Bassia scoparia) [19] = test: as above; conditions: 10 days, 0 = no effect, 100 = complete control
Procedure, shortened: as §1

soybean (Glycine max) [20] = test: as above; conditions: 10 days, 0 = no effect, 100 = complete control
Procedure, shortened: as §1

[21] = system: wheat (Triticum aestivum); test: as above; conditions: 10 days, 0 = no effect, 100 = complete control
Procedure, shortened: as §1

[22] = system: oat, wild (wild oat, Avena fatua); test: as above; conditions: 10 days, 0 = no effect, 100 = complete control
Procedure, shortened: as §1

[23] = system: blackgrass (Alopecurus myosuroides); test: as above; conditions: 10 days, 0 = no effect, 100 = complete control
Procedure, shortened: as §1

[24] = system: ragweed (common ragweed, Ambrosia artemisiifolia); test: as above; conditions: 10 days, 0 = no effect, 100 = complete control
Procedure, shortened: as §1

[25] = system: barnyardgrass (Echinochloa crus-galli); test: as above; conditions: 10 days, 0 = no effect, 100 = complete control
Procedure, shortened: as §1

[26] = 31 g ai/ha, postemergence, 0 = no effect, 100 = complete control
[27] = Postemergence, 125 g ai/ha, 0 is no effect, 100 is complete control

## CC1(C(=O)NC2C=CC(C(=O)OC3CCCC3)C2)CN(c2cc(Cl)cc(Cl)c2)C(=O)O1 (stereo not drawn) [Compound 59]
Corn (Zea mays) [1]; [26]
  Corn plant response rating (0-100): 90
Corn (Zea mays) [1]; [27]
  Corn plant response rating (0 to 100 scale): 100
[2]; [26]
  Amaranth, Palmer plant response rating (0-100): 90
[2]; [27]
  Amaranth, Palmer / Pigweed, Palmer plant response rating (0 to 100 scale): 100
[3]; [26]
  Galium plant response rating (0-100): 90
[3]; [27]
  Galium plant response rating (0 to 100 scale): 90
[4]; [26]
  Ryegrass, Italian plant response rating (0-100): 90
[4]; [27]
  Ryegrass, Italian plant response rating (0 to 100 scale): 90
Kochia (Bassia scoparia) [5]; [26]
  Kochia plant response rating (0-100): 80
Kochia (Bassia scoparia) [5]; [27]
  Kochia plant response rating (0 to 100 scale): 90
Soybean (Glycine max) [6]; [26]
  Soybean plant response rating (0-100): 90
Soybean (Glycine max) [6]; [27]
  Soybean plant response rating (0 to 100 scale): 100
[7]; [26]
  Wheat plant response rating (0-100): 90
[7]; [27]
  Wheat plant response rating (0 to 100 scale): 90
[8]; [26]
  Oat, Wild plant response rating (0-100): 60
[8]; [27]
  Oat, Wild plant response rating (0 to 100 scale): 90
[9]; [26]
  Blackgrass plant response rating (0-100): 100
[9]; [27]
  Blackgrass plant response rating (0 to 100 scale): 100
[10]; [26]
  Ragweed plant response rating (0-100): 30
[10]; [27]
  Ragweed plant response rating (0 to 100 scale): 80
[11]; [26]
  Horseweed plant response rating (0-100): 20
[11]; [27]
  Horseweed plant response rating (0 to 100 scale): 70
[12]; [26]
  Barnyardgrass plant response rating (0-100): 90
[12]; [27]
  Barnyardgrass plant response rating (0 to 100 scale): 90
[13]
  Plant response rating, Barnyardgrass (0 to 100 scale, 0 is no effect and 100 is complete control): 90
[14]
  Plant response rating, Sedge, Umbrella (0 to 100 scale, 0 is no effect and 100 is complete control): 98
[15]
  Plant response rating, Ducksalad (0 to 100 scale, 0 is no effect and 100 is complete control): 85
Rice (Oryza sativa)
  Plant response rating, Rice (0 to 100 scale, 0 is no effect and 100 is complete control): 50
Corn (Zea mays) [16]; 31 g ai/ha
  Corn plant response rating (0-100): 0
Corn (Zea mays) [16]; 125 g ai/ha
  Corn plant response rating (0 to 100 scale): 50
[17]; 31 g ai/ha
  Amaranth, Palmer plant response rating (0-100): 100
[17]; 125 g ai/ha
  Amaranth, Palmer plant response rating (0 to 100 scale): 100
[18]; 31 g ai/ha
  Ryegrass, Italian plant response rating (0-100): 60
[18]; 125 g ai/ha
  Ryegrass, Italian plant response rating (0 to 100 scale): 80
Kochia (Bassia scoparia) [19]; 31 g ai/ha
  Kochia plant response rating (0-100): 40
Kochia (Bassia scoparia) [19]; 125 g ai/ha
  Kochia plant response rating (0 to 100 scale): 80
Soybean (Glycine max) [20]; 31 g ai/ha
  Soybean plant response rating (0-100): 30
Soybean (Glycine max) [20]; 125 g ai/ha
  Soybean plant response rating (0 to 100 scale): 60
[21]; 31 g ai/ha
  Wheat plant response rating (0-100): 30
[21]; 125 g ai/ha
  Wheat plant response rating (0 to 100 scale): 70
[22]; 31 g ai/ha
  Oat, Wild plant response rating (0-100): 10
[22]; 125 g ai/ha
  Oat, Wild plant response rating (0 to 100 scale): 80
[23]; 31 g ai/ha
  Blackgrass plant response rating (0-100): 0
[23]; 125 g ai/ha
  Blackgrass plant response rating (0 to 100 scale): 60
[24]; 31 g ai/ha
  Ragweed plant response rating (0-100): 30
[24]; 125 g ai/ha
  Ragweed plant response rating (0 to 100 scale): 60
[25]; 31 g ai/ha
  Barnyardgrass plant response rating (0-100): 60
[25]; 125 g ai/ha
  Barnyardgrass plant response rating (0 to 100 scale): 100
